Test results: patent US8445437B2, “Treatment and prevention of cardiovascular disease using mast cell stabilizers” (The Brigham and Women's Hospital, Inc., priority 2006, dated 2013)

Test system: LDLr-/- mice fed an atherogenic (Western) diet
Experiment: Diet-induced atherosclerosis in LDLr-/- mice with mast cell stabilization or activation
Type: in vivo, mouse
Details: male LDLr-/- mice, 25 mg/kg/day daily

O=C(O)c1cc(=O)c2c(OCC(O)COc3cccc4oc(C(=O)O)cc(=O)c34)cccc2o1 [DSCG, disodium cromoglycate]
reduction of atherosclerotic lesion development (12 weeks): > 50%
reduction of atherosclerotic lesion development (26 weeks): > 50%
